Reference: patent US9770481B2, “Inhibitors of NOX1” (UNIVERSITY OF PITTSBURGH—OF THE COMMONWEALTH SYSTEM OF …, priority 2011, dated 2017)

How the values were obtained:
[1] = system: HPAEC constitutively expressing Nox1; test: Angiotensin II-induced O2- production by HPAEC (cytochrome c); type: cell-based, human; settings: 100 nM angiotensin II, 10 μM peptide, 1 hr
Method: FIG. 10. O2^− Production by human pulmonary artery endothelial cells (“HPAEC”) which were either (i) untreated; (ii) treated with 100 nM angiotensin II; (iii) treated with 100 nM angiotensin II and 10 μM NoxA1ds; or (iv) treated with 100 nM angiotensin II and 10 μM SCRMB peptide. Results represent mean±SEM, n=5-9, 2-3 separate experiments.
In further studies, HPAEC constitutively expressing Nox1 were treated with vehicle or Angiotensin II (AngII, one mediator of hypertension) alone or in combination with NoxA1ds, or SCRMB for 1 hr. O2^− production was then measured via reduction of cytochrome c.

xanthine oxidase = test: O2- production by pure xanthine oxidase stimulated with hypoxanthine (EPR); type: biochemical; settings: 0.1 nM to 10,000 nM
Method: (§1) To test whether the inhibitory effect of NoxA1ds is specific to Nox1, the effect of NoxA1ds was tested on cells expressing Nox2, Nox4, and Nox5 as well as on purified xanthine oxidase enzyme. To test the effect on Nox2, production of O2^− was measured by the reduction of cytochrome c by cell lysates from COS cells transiently transfected with the Nox2 oxidase, stimulated with LiDS, and the treated with increasing concentrations of NoxA1ds (from 0.1 nM to 10,000 nM). Similarly, production of H2O2 was measured by Amplex red fluorescence by COS cells transiently transfected with the Nox4 oxidase and treated with increasing concentrations of NoxA1ds (from 100 nM to 10,000 nM). Production of O2^− was also measured by the reduction of cytochrome c by cell lysates from HEK293 cells stably transfected with the Nox5 oxidase stimulated with Ca^2+, and treated with increasing concentrations of NoxA1ds (from 0.1 nM to 10,000 nM). Finally, production of O2^− was measured by Electron Paramagnetic Resonance from pure xanthine oxidase enzyme preparations, stimulated with hypoxanthine and treated with increasing concentrations of NoxA1ds (from 0.1 nM to 10,000 nM).

Nox4 = biological target: T1, Nox4 (Homo sapiens, UniProt Q9NPH5); test: H2O2 production by COS cells transfected with Nox4 oxidase (Amplex red); type: cell-based; settings: 100 nM to 10,000 nM
T1 construct: expressed in transfected cells; host or cells: COS22 / COS cells, transient transfection
T1 sequence (Q9NPH5 1-578): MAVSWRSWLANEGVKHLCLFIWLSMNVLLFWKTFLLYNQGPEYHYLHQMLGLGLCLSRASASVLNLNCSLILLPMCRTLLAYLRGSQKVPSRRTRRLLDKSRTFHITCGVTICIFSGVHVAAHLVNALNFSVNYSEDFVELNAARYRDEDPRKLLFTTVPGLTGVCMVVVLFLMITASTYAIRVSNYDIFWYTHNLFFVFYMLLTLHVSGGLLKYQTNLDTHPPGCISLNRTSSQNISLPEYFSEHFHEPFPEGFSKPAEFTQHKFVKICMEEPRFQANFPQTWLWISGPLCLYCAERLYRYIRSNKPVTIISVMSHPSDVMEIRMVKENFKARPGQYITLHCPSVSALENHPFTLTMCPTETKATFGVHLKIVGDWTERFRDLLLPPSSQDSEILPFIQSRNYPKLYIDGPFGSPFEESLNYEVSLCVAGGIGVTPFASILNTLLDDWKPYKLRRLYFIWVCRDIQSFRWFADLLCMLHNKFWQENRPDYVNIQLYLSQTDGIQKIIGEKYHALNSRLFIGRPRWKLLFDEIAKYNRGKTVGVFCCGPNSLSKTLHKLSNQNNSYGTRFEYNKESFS
T1 sequence (P13498 1-195 partner): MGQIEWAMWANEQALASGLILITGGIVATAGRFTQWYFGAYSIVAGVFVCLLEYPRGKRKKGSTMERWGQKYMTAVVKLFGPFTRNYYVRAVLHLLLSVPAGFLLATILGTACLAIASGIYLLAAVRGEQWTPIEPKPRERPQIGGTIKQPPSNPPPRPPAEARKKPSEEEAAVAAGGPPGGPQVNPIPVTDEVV
Method: as §1

Nox2 = biological target: T2, Nox2 (Homo sapiens, UniProt P04839); test: O2- production by lysates of COS cells transfected with Nox2 oxidase, LiDS-stimulated (cytochrome c); type: cell-based; settings: 0.1 nM to 10,000 nM
T2 construct: expressed in transfected cells; host or cells: COS22 / COS cells, transient transfection; cell lysates
T2 sequence (P04839 2-570 limits assumed): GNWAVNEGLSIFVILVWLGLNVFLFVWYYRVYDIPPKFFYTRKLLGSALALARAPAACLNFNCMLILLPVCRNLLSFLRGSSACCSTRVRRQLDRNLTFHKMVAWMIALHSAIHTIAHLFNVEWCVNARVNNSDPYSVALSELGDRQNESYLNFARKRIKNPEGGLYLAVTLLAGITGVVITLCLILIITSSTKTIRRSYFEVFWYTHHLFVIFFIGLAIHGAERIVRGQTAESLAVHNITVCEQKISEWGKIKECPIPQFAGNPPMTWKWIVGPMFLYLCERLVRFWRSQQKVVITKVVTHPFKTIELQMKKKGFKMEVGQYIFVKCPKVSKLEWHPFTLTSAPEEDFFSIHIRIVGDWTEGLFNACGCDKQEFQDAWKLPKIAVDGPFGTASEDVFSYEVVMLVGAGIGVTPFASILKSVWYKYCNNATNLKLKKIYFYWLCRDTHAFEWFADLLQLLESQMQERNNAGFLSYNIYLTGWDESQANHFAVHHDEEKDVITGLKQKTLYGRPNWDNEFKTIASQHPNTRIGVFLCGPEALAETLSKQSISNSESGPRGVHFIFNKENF
T2 sequence (P13498 1-195 partner): T1 sequence (P13498 1-195 partner)
Method: as §1

[2] = system: rat aortic smooth muscle cells; test: Stretch-induced migration of rat aortic smooth muscle cells (wound closure); type: cell-based; settings: 10 μM added every four hours; cyclic stretch 24 hrs
Method: The effect on NoxA1ds on stretch-induced migration of rat aortic smooth muscle cells was studied. Cell monolayer cultures with an introduced gap (“wound”) were subjected to 24 hrs of cyclic stretch (10%, 1 Hz) with 10 μM NoxA1ds or SCRMB control being added every four hours. Cell migration may be assessed as the distance the wound has closed, where greater […] corresponds to greater migration. Cell migration increased as a result of cyclic stretch.

[3] = system: HT-29 colon adenocarcinoma cells; test: O2- production by HT-29 cells (SOD inhibitable reduction of cytochrome c); type: cell-based; settings: increasing doses
[4] = system: rat aortic smooth muscle cells; test: Calponin and osteopontin expression in stretched rat aortic smooth muscle cells (Western blot); type: cell-based; settings: 10 μM added every four hours; cyclic stretch 24 hrs
Method: The effect of Nox1 inhibition on the expression of certain protein markers of rat aortic smooth muscle cell contractile vs. synthetic phenotypes was evaluated. Cells were subjected to 24 hrs of cyclic stretch (10%, 1 Hz) with 10 μM NoxA1ds or SCRMB control being added every four hours. […] Calponin expression during stretch was rescued by the addition of 10 μM NoxA1ds, yet was unaffected by the addition of 10 μM scrambled peptide (SCRMB). A representative Western blot is shown below the graph (FIG. 9B). Osteopontin (OPN, a marker of the […] phenotype), expression increased after 24 hrs of stretch.

H-EPVDALGKAKV-NH2 [NoxA1ds, [NH3^+]-EPVDALGKAKV-[CONH2]]
AngII-induced O2- production [1]: completely inhibited | Inhibitory effect on xanthine oxidase O2- production (xanthine oxidase): did not exhibit a significant inhibitory effect | Inhibitory effect on Nox4 H2O2 production (Nox4): did not exhibit a significant inhibitory effect | Inhibitory effect on Nox2 O2- production (Nox2): did not exhibit a significant inhibitory effect | Stretch-induced cell migration (wound closure) [2]: reduced migration to levels observed in non-stretched cells | Inhibition of O2- production by HT-29 cells [3]: dose-dependent inhibition | Calponin expression during stretch [4]: rescued | Osteopontin (OPN) expression during stretch [4]: returned to levels observed in the absence of stretch
